Results as given in ChEMBL document CHEMBL1133426, “2-Substituted paullones: CDK1/cyclin B-inhibiting property and in vitro antiproliferative activity” (Bioorg Med Chem Lett, 2000).

Experiments:
cells = type: functional; settings: Homo sapiens
Description: Inhibition of proliferation in NCI panel of 60 human tumor cell lines

HCT-116 = assay: cells; type: functional; settings: Homo sapiens
Description: Inhibition of HCT116 colon cancer cell proliferation

Row | Compound | GI50 (cells) [µM] | GI50 (HCT-116) [µM]
1 | O=C1Cc2c([nH]c3ccc(C(F)(F)F)cc23)-c2cc(C#CC3(O)CCCCC3)ccc2N1 | 2 | 2.51
2 | O=C1Cc2c([nH]c3ccc(C(F)(F)F)cc23)-c2cc(C#CCO)ccc2N1 | 12.6 | 3.16
3 | O=C1Cc2c([nH]c3ccc(Br)cc23)-c2ccccc2N1 [KENPAULLONE] | 39.8 | 
